The subject of this test is Sinapis alba myrosinase. Description: HPLC progress curves. The class given is biochemical. Particulars: pH 7.4, 37 °C; pooled wavelength data (220, 227, 235, 241 nm); myrosinase 8.83 U/ml.

Take `O=S(=O)(O)O/N=C(/CC(c1ccccc1)c1ccccc1)S[C@@H]1O[C@H](CO)[C@@H](O)[C@H](O)[C@H]1O` [compound 5, 2,2-Diphenylethyl glucosinolate]: the Km turned out to be 798 ± 71 µM.

These data come from publication PMC5097697 (Analytical biochemistry, 2016).
